# Data: US20040019092A1, “Non-peptide somatostatin receptor ligands” (priority 2001, published 2004)
# Several values for one entry are separate records, joined by “and”; a condition that tells them apart may be missing. Equal values may be shown once.
# Experiments:
# [1] = test system: SRIF receptors ([^125I]SRIF-28 binding sites); test: Ex-vivo [^125I]Tyr^26-SRIF-28 binding in rat cortex and hippocampus after s.c. dosing; design: species or system Wistar rats; conditions: 60 min
# Procedure: Ex-vivo binding was used to determine to whether compound 14 (a potent sst2 receptor selective hydantoin) when applied peripherally to rates can cross the blood brain barrier, as robust behavioral models are not fully characterized and blood-brain penetration models are not routinely available. […] The rats were given saline or drug sub-cutaneously at the indicated dose (in saline) and killed 60 minutes after application with CO2. The brain was removed and placed on ice; the cerebral cortex and hippocampus were dissected out and weighted. […] The homogenate was stored on ice and used immediately or deep frozen (-70° C.) until used (1-3 days). […] The tables list the effects of compound 14 on cortex (Table 6) and hippocampus (Table 7) binding at the doses and times indicated (see also FIGS. 3 and 4). TB=total binding, NS=non specific binding, SB=specific binding. The values are indicated in cpm for individual animals, mean, n=number of animals, sem=standard error of the mean; percent=% specific binding remaining following treatment compared to controls.
# sst2 = sst2 (Homo sapiens, UniProt P30874); test: sst2 cyclase (second messenger studies); assay type: cell-based
# Sequence of sst2 (P30874 whole entry, species assumed): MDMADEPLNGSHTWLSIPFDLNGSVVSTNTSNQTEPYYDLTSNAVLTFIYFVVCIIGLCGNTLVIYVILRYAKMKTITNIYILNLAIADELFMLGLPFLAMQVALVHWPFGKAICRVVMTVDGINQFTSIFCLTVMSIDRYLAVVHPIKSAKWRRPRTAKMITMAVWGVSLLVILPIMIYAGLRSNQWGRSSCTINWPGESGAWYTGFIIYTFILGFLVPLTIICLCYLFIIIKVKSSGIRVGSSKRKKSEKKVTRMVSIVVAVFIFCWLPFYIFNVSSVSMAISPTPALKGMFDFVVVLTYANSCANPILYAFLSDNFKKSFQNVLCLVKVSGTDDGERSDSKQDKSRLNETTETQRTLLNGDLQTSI
# Description: In particular the compounds of the invention bind to somatostatin receptors. More particularly they are selective agonists at Somatostatin sst2 receptors, as determined in radioligand binding and second messenger studies (see for example K. Kaupmann et al., FEBS LETTERS 1993, 331, […]).
# in vivo = conditions: male, Wistar, rat
# Procedure: The pharmacokinetic study was performed with 3 male Wistar rats (BRL) weighing 300-330 g with a one week interval between administration phases. The day before the first dosing, the rats underwent surgical implantation of an in-dwelling cannula; the right femoral artery was cannulated and the tube was passed subcutaneously to emerge at the back of the neck. The animals were individually housed in metabolism cages and fasted overnight before administrations.
# The dose solution was administered (5 mL/kg) by gastric incubation.
# The dose solution was administered (2 mL/kg) into the surgically exposed femoral vein.
# During the study, 18 blood samples (100-500 μL) were taken, up to 48 hours post-dose from the cannulated femoral artery representing a total volume of 5.7 mL blood. The loss of blood was compensated by infusion of 6 times 1 mL of blood from donor rats. Urine samples were collected up to 48 hours post-dose. For the analysis of the in vivo brain distribution, 3 male rats were intravenously dosed (1 mg/kg or 72 μCi/kg) as described above. At 0.5 hours after administration, the rats were sacrificed; blood and brain were collected.
# Determination of radioactivity in blood, plasma, brain homogenates and in urine, was carried out by direct liquid scintillation counting. Prior to radiometric determination, blood and tissue were solubilized in Solutron (Kontron Instruments, Zurich, Switzerland). After adding 10 mL of scintillation cocktail (Lumasafe, Lumac, Landgraaf, the Netherlands), all samples were counted in Tri-carb liquid scintillation analyzer (Canberra Packard, IL).
# The procedure involved the addition of 5 μg of non-radiolabeled 42 to each blood sample as an internal standard. After adding 1 mL of acetonitrile, the sample was mixed with a Polytron mixer and centrifuged (234000×g, 30 minutes) in a Beckman centrifuge (Model TL100). The supernatant was evaporated in a vacuum centrifuge (Univapo 150H, Zivy). The residue was reconstituted in 250 μL of mobile phase-water (3:1 v/v) and centrifuged (3000×g, 60 s). The supernatant (200 μL) was injected onto HPLC. […] Compound 42 was separated from potential metabolites and endogenous compounds on a RP18 endcapped Superspher column, 125 mm×4 mm (Merck) at 45° C. The mobile phase consisted of 0.1% tetramethylammonium hydroxide—acetonitrile (500:500 v/v). The flow rate was 1 mL/min; the effluent was monitored at 260 nm. […] The limit of quantification was 0.3 ng/mL.
# The peeling method was applied to describe the data by a compartment model approach, characterized by the following equation: C═C1*e^λ1−t+C2*e^λ2−t. The initial estimates of C1, λ1, C2, λ2 were taken to generate the best fit using the computer software ELSFIT. The estimates for half-lives were calculated as T1/2λi=ln2/λi.
# [2] = cortex, SRIF-28 +MgCl-2, 0.3 mg/kg s.c.
# [3] = cortex, SRIF-28 +MgCl-2, 1 mg/kg s.c.
# [4] = cortex, SRIF-28 +MgCl-2, 3 mg/kg s.c.
# [5] = cortex, SRIF-28 +MgCl-2, 10 mg/kg s.c.
# [6] = hippocampus, SRIF-28 +MgCl-2, 0.3 mg/kg s.c.
# [7] = hippocampus, SRIF-28 +MgCl-2, 1 mg/kg s.c.
# [8] = hippocampus, SRIF-28 +MgCl-2, 3 mg/kg s.c.
# [9] = hippocampus, SRIF-28 +MgCl-2, 10 mg/kg s.c.
smiles,measurement,setting,value
Cc1cccc2c(CC3C(=O)N(CCCCCN)C(=O)N3S(=O)(=O)c3ccc(Oc4ccc(O)cc4)c(C#N)c3)c[nH]c12 (centres unmarked) [Compound 14],"NS non specific binding, individual animals",[1]; [2],3058 cpm and 2970 cpm and 3027 cpm
same,"NS non specific binding, mean",[1]; [2],3018 cpm
same,"SB specific binding, individual animals",[1]; [2],24318 cpm and 23238 cpm and 23669 cpm
same,"SB specific binding, mean",[1]; [2],23742 cpm
same,"TB total binding, individual animals",[1]; [2],27376 cpm and 26208 cpm and 26696 cpm
same,"TB total binding, mean",[1]; [2],26760 cpm
same,percent specific binding remaining compared to controls,[1]; [2],89%
same,"NS non specific binding, individual animals",[1]; [3],2915 cpm and 3036 cpm and 3191 cpm
same,"NS non specific binding, mean",[1]; [3],3047 cpm
same,"SB specific binding, individual animals",[1]; [3],21767 cpm and 23930 cpm and 23905 cpm
same,"SB specific binding, mean",[1]; [3],23201 cpm
same,"TB total binding, individual animals",[1]; [3],24682 cpm and 26966 cpm and 27096 cpm
same,"TB total binding, mean",[1]; [3],26248 cpm
same,percent specific binding remaining compared to controls,[1]; [3],95%
same,"NS non specific binding, individual animals",[1]; [4],2980 cpm and 3016 cpm and 3116 cpm
same,"NS non specific binding, mean",[1]; [4],3037 cpm
same,"SB specific binding, individual animals",[1]; [4],22191 cpm and 21992 cpm and 22578 cpm
same,"SB specific binding, mean",[1]; [4],22254 cpm
same,"TB total binding, individual animals",[1]; [4],25171 cpm and 25008 cpm and 25694 cpm
same,"TB total binding, mean",[1]; [4],25291 cpm
same,percent specific binding remaining compared to controls,[1]; [4],91%
same,"NS non specific binding, individual animals",[1]; [5],3070 cpm and 3015 cpm and 3305 cpm
same,"NS non specific binding, mean",[1]; [5],3130 cpm
same,"SB specific binding, individual animals",[1]; [5],22730 cpm and 21395 cpm and 23605 cpm
same,"SB specific binding, mean",[1]; [5],22577 cpm
same,"TB total binding, individual animals",[1]; [5],25800 cpm and 24410 cpm and 26910 cpm
same,"TB total binding, mean",[1]; [5],25707 cpm
same,percent specific binding remaining compared to controls,[1]; [5],93%
same,"NS non specific binding, individual animals",[1]; [6],2936 cpm and 2874 cpm and 2753 cpm
same,"NS non specific binding, mean",[1]; [6],2854 cpm
same,"SB specific binding, individual animals",[1]; [6],18219 cpm and 18124 cpm and 19319 cpm
same,"SB specific binding, mean",[1]; [6],18554 cpm
same,"TB total binding, individual animals",[1]; [6],21155 cpm and 20998 cpm and 22072 cpm
same,"TB total binding, mean",[1]; [6],21408 cpm
same,percent specific binding remaining compared to controls,[1]; [6],112%
same,"NS non specific binding, individual animals",[1]; [7],2754 cpm and 2528 cpm and 2621 cpm
same,"NS non specific binding, mean",[1]; [7],2634 cpm
same,"SB specific binding, individual animals",[1]; [7],17055 cpm and 18516 cpm and 18145 cpm
same,"SB specific binding, mean",[1]; [7],17905 cpm
same,"TB total binding, individual animals",[1]; [7],19809 cpm and 21044 cpm and 20766 cpm
same,"TB total binding, mean",[1]; [7],20540 cpm
same,percent specific binding remaining compared to controls,[1]; [7],108%
same,"NS non specific binding, individual animals",[1]; [8],2532 cpm and 2841 cpm and 2786 cpm
same,"NS non specific binding, mean",[1]; [8],2720 cpm
same,"SB specific binding, individual animals",[1]; [8],15758 cpm and 14336 cpm and 15162 cpm
same,"SB specific binding, mean",[1]; [8],15085 cpm
same,"TB total binding, individual animals",[1]; [8],18290 cpm and 17117 cpm and 17948 cpm
same,"TB total binding, mean",[1]; [8],17805 cpm
same,percent specific binding remaining compared to controls,[1]; [8],91%
same,"NS non specific binding, individual animals",[1]; [9],2587 cpm and 2850 cpm and 2711 cpm
same,"NS non specific binding, mean",[1]; [9],2716 cpm
same,"SB specific binding, individual animals",[1]; [9],15809 cpm and 14387 cpm and 13715 cpm
same,"SB specific binding, mean",[1]; [9],14637 cpm
same,"TB total binding, individual animals",[1]; [9],18398 cpm and 17237 cpm and 18426 cpm
same,"TB total binding, mean",[1]; [9],17353 cpm
same,percent specific binding remaining compared to controls,[1]; [9],88%
same,sst2 cyclase pEC50,sst2,9.32
N#Cc1cc(S(=O)(=O)N2C(=O)N(CCCCCN)C(=O)C2Cc2c[nH]c3ccccc23)ccc1Oc1ccc(N)cc1 (centres unmarked) [Compound 42],bioavailability,in vivo,1.3 ± 0.9%
same,Vd,"in vivo; iv, 1 mg/kg",20 L/kg
same,clearance,"in vivo; iv, 1 mg/kg",4.5 mL/min
same,half-life,"in vivo; iv, first half-life t1/2λ1",0.45 h
same,half-life,"in vivo; iv, terminal half-life t1/2",24 h
